Results from PubChem BioAssay AID1745844 (Carcinogenic Potency Database (CPDB), 2022).
Active and inactive are the calls of the source. How the calls were made is not given here.

System: rodent lifetime carcinogenesis bioassay, tumor incidence TD50
Test: chronic cancer bioassays in animals – CPDB, compiled studies (AID 1745844)

`CN(N)C=O` showed a TD50 (hamster, strain Syrian Golden, females, in drinking water, site: all sites, lesion: histiocytoma, malignant, dosed 102 weeks, study length 102 weeks) of 4.71 mg/kg/day, a TD50 (hamster, strain Syrian Golden, females, in drinking water, site: any site (literature study), lesion: several types, types named in the paper, dosed 102 weeks, study length 102 weeks) of 6.04 mg/kg/day and a TD50 (hamster, strain Syrian Golden, females, in drinking water, site: gall bladder, lesion: several types, types named in the paper, dosed 102 weeks, study length 102 weeks) of 29.1 mg/kg/day. For the same compound, the TD50 (hamster, strain Syrian Golden, females, in drinking water, site: liver, lesion: hepatoma, dosed 102 weeks, study length 102 weeks) was 28.3 mg/kg/day, the TD50 (hamster, strain Syrian Golden, females, in drinking water, site: liver, lesion: liver-cell carcinoma, dosed 102 weeks, study length 102 weeks) was 25.1 mg/kg/day and the TD50 (hamster, strain Syrian Golden, females, in drinking water, site: liver, lesion: several types, types named in the paper, dosed 102 weeks, study length 102 weeks) was 11.3 mg/kg/day. It also gave a TD50 (hamster, strain Syrian Golden, males, in drinking water, site: all sites, lesion: histiocytoma, malignant, dosed 102 weeks, study length 102 weeks) of 12.7 mg/kg/day, a TD50 (hamster, strain Syrian Golden, males, in drinking water, site: any site (literature study), lesion: several types, types named in the paper, dosed 102 weeks, study length 102 weeks) of 4.89 mg/kg/day and a TD50 (hamster, strain Syrian Golden, males, in drinking water, site: bile duct, lesion: several types, types named in the paper, dosed 102 weeks, study length 102 weeks) of 19.7 mg/kg/day. The TD50 (hamster, strain Syrian Golden, males, in drinking water, site: gall bladder, lesion: papillary adenoma, dosed 102 weeks, study length 102 weeks) was 42.5 mg/kg/day, the TD50 (hamster, strain Syrian Golden, males, in drinking water, site: gall bladder, lesion: several types, types named in the paper, dosed 102 weeks, study length 102 weeks) was 25.3 mg/kg/day and the TD50 (hamster, strain Syrian Golden, males, in drinking water, site: liver, lesion: hepatoma, dosed 102 weeks, study length 102 weeks) was 13.3 mg/kg/day. The TD50 (hamster, strain Syrian Golden, males, in drinking water, site: liver, lesion: liver-cell carcinoma, dosed 102 weeks, study length 102 weeks) was 30 mg/kg/day, the TD50 (hamster, strain Syrian Golden, males, in drinking water, site: liver, lesion: several types, types named in the paper, dosed 102 weeks, study length 102 weeks) was 7.55 mg/kg/day and the TD50 (mouse, strain Swiss albino, females, in drinking water, site: blood vessels, lesion: several types, types named in the paper, dosed 92 weeks, study length 92 weeks) was 12.2 mg/kg/day. The TD50 (mouse, strain Swiss albino, females, in drinking water, site: blood vessels, lesion: several types, types named in the paper, dosed 99 weeks, study length 100 weeks) was 6.04 mg/kg/day, the TD50 (mouse, strain Swiss albino, females, in drinking water, site: gall bladder, lesion: adenoma, dosed 65 weeks, study length 73 weeks) was 31.5 mg/kg/day and the TD50 (mouse, strain Swiss albino, females, in drinking water, site: gall bladder, lesion: adenoma, dosed 92 weeks, study length 92 weeks) was 39.7 mg/kg/day. The TD50 (mouse, strain Swiss albino, females, in drinking water, site: gall bladder, lesion: several types, types named in the paper, dosed 92 weeks, study length 92 weeks) was 31.3 mg/kg/day, the TD50 (mouse, strain Swiss albino, females, in drinking water, site: gall bladder, lesion: several types, types named in the paper, dosed 99 weeks, study length 100 weeks) was 57.9 mg/kg/day and the TD50 (mouse, strain Swiss albino, females, in drinking water, site: liver, lesion: angioma, dosed 97 weeks, study length 102 weeks) was 23.8 mg/kg/day (inactive). It also gave a TD50 (mouse, strain Swiss albino, females, in drinking water, site: liver, lesion: hepatoma, benign, dosed 92 weeks, study length 92 weeks) of 17.5 mg/kg/day, a TD50 (mouse, strain Swiss albino, females, in drinking water, site: liver, lesion: hepatoma, benign, dosed 99 weeks, study length 100 weeks) of 24.7 mg/kg/day and a TD50 (mouse, strain Swiss albino, females, in drinking water, site: liver, lesion: hepatoma, dosed 65 weeks, study length 73 weeks) of 19.5 mg/kg/day. For the same compound, the TD50 (mouse, strain Swiss albino, females, in drinking water, site: liver, lesion: hepatoma, dosed 97 weeks, study length 102 weeks) was 9.23 mg/kg/day (inactive), the TD50 (mouse, strain Swiss albino, females, in drinking water, site: liver, lesion: liver-cell carcinoma, dosed 65 weeks, study length 73 weeks) was 19.9 mg/kg/day and the TD50 (mouse, strain Swiss albino, females, in drinking water, site: liver, lesion: liver-cell carcinoma, dosed 92 weeks, study length 92 weeks) was 22.4 mg/kg/day. For the same compound, the TD50 (mouse, strain Swiss albino, females, in drinking water, site: liver, lesion: several types, types named in the paper, dosed 65 weeks, study length 73 weeks) was 10.4 mg/kg/day, the TD50 (mouse, strain Swiss albino, females, in drinking water, site: liver, lesion: several types, types named in the paper, dosed 92 weeks, study length 92 weeks) was 8.66 mg/kg/day and the TD50 (mouse, strain Swiss albino, females, in drinking water, site: lung, lesion: adenocarcinoma, dosed 97 weeks, study length 102 weeks) was 1.12 mg/kg/day. For the same compound, the TD50 (mouse, strain Swiss albino, females, in drinking water, site: lung, lesion: adenoma, dosed 97 weeks, study length 102 weeks) was 1.5 mg/kg/day, the TD50 (mouse, strain Swiss albino, females, in drinking water, site: lung, lesion: several types, types named in the paper, dosed 65 weeks, study length 73 weeks) was 6.44 mg/kg/day and the TD50 (mouse, strain Swiss albino, females, in drinking water, site: lung, lesion: several types, types named in the paper, dosed 92 weeks, study length 92 weeks) was 2.16 mg/kg/day. For the same compound, the TD50 (mouse, strain Swiss albino, females, in drinking water, site: lung, lesion: several types, types named in the paper, dosed 97 weeks, study length 102 weeks) was 0.745 mg/kg/day, the TD50 (mouse, strain Swiss albino, females, in drinking water, site: lung, lesion: several types, types named in the paper, dosed 99 weeks, study length 100 weeks) was 0.921 mg/kg/day and the TD50 (mouse, strain Swiss albino, males, in drinking water, site: bile duct, lesion: cholangioma, dosed 82 weeks, study length 82 weeks) was 12.4 mg/kg/day. The TD50 (mouse, strain Swiss albino, males, in drinking water, site: bile duct, lesion: several types, types named in the paper, dosed 65 weeks, study length 72 weeks) was 36.2 mg/kg/day, the TD50 (mouse, strain Swiss albino, males, in drinking water, site: blood vessels, lesion: several types, types named in the paper, dosed 96 weeks, study length 100 weeks) was 3.47 mg/kg/day and the TD50 (mouse, strain Swiss albino, males, in drinking water, site: forestomach, lesion: squamous-cell papilloma, dosed 97 weeks, study length 102 weeks) was 11.2 mg/kg/day (inactive). The TD50 (mouse, strain Swiss albino, males, in drinking water, site: gall bladder, lesion: adenoma, dosed 65 weeks, study length 72 weeks) was 38 mg/kg/day, the TD50 (mouse, strain Swiss albino, males, in drinking water, site: gall bladder, lesion: adenoma, dosed 82 weeks, study length 82 weeks) was 15.2 mg/kg/day and the TD50 (mouse, strain Swiss albino, males, in drinking water, site: gall bladder, lesion: adenoma, dosed 96 weeks, study length 100 weeks) was 9.88 mg/kg/day. It also gave a TD50 (mouse, strain Swiss albino, males, in drinking water, site: gall bladder, lesion: several types, types named in the paper, dosed 96 weeks, study length 100 weeks) of 9.1 mg/kg/day, a TD50 (mouse, strain Swiss albino, males, in drinking water, site: liver, lesion: several types, types named in the paper, dosed 65 weeks, study length 72 weeks) of 16.8 mg/kg/day and a TD50 (mouse, strain Swiss albino, males, in drinking water, site: liver, lesion: several types, types named in the paper, dosed 82 weeks, study length 82 weeks) of 1.03 mg/kg/day. The TD50 (mouse, strain Swiss albino, males, in drinking water, site: liver, lesion: several types, types named in the paper, dosed 96 weeks, study length 100 weeks) was 5.47 mg/kg/day, the TD50 (mouse, strain Swiss albino, males, in drinking water, site: lung, lesion: adenocarcinoma, dosed 97 weeks, study length 102 weeks) was 2.48 mg/kg/day and the TD50 (mouse, strain Swiss albino, males, in drinking water, site: lung, lesion: adenoma, dosed 97 weeks, study length 102 weeks) was 1.3 mg/kg/day. It also gave a TD50 (mouse, strain Swiss albino, males, in drinking water, site: lung, lesion: several types, types named in the paper, dosed 65 weeks, study length 72 weeks) of 14.2 mg/kg/day, a TD50 (mouse, strain Swiss albino, males, in drinking water, site: lung, lesion: several types, types named in the paper, dosed 82 weeks, study length 82 weeks) of 1.87 mg/kg/day and a TD50 (mouse, strain Swiss albino, males, in drinking water, site: lung, lesion: several types, types named in the paper, dosed 96 weeks, study length 100 weeks) of 1.72 mg/kg/day. The TD50 (mouse, strain Swiss albino, males, in drinking water, site: lung, lesion: several types, types named in the paper, dosed 97 weeks, study length 102 weeks) was 0.865 mg/kg/day, the TD50 (mouse, strain Swiss albino, males, in drinking water, site: seminal vesicle, lesion: adenoma, dosed 82 weeks, study length 82 weeks) was 20.7 mg/kg/day (inactive) and the TD50 (mouse, strain Swiss albino, males, in drinking water, site: stomach, glandular, lesion: polypoid adenoma, dosed 97 weeks, study length 102 weeks) was 3.43 mg/kg/day (inactive). The TD50 (mouse, strain Swiss albino, males, in drinking water, site: subcutaneous tissue, lesion: fibrosarcoma, dosed 97 weeks, study length 102 weeks) was 2.6 mg/kg/day (inactive).
Work on `Nc1ccc(Oc2ccc(N)c(N)c2)cc1` yielded a TD50 (mouse, strain ICR/Jcl, males, in feed, site: liver, lesion: hepatoma, dosed 52 weeks, study length 52 weeks) of 13.3 mg/kg/day.
In the case of `CCn1cc(C(=O)O)c(=O)c2ccc(C)nc21`, the TD50 (mouse, strain B6C3F1, females, in feed, site: adrenal medulla, lesion: pheochromocytoma, dosed 103 weeks, study length 104 weeks) is reported as 3630 mg/kg/day (inactive), the TD50 (mouse, strain B6C3F1, females, in feed, site: any site (literature study), lesion: several types, types named in the paper, dosed 103 weeks, study length 104 weeks) is reported as 1690 mg/kg/day and the TD50 (mouse, strain B6C3F1, females, in feed, site: liver, lesion: hepatocellular adenoma + hepatocellular carcinoma + neoplastic nodule, dosed 103 weeks, study length 104 weeks) is reported as 3160 mg/kg/day. It also gave a TD50 (mouse, strain B6C3F1, females, in feed, site: lung, lesion: alveolar/bronchiolar adenoma + alveolar/bronchiolar carcinoma, dosed 103 weeks, study length 104 weeks) of 4900 mg/kg/day, a TD50 (mouse, strain B6C3F1, males, in feed, site: any site (literature study), lesion: several types, types named in the paper, dosed 103 weeks, study length 104 weeks) of 1330 mg/kg/day and a TD50 (mouse, strain B6C3F1, males, in feed, site: lung, lesion: alveolar/bronchiolar adenoma + alveolar/bronchiolar carcinoma, dosed 103 weeks, study length 104 weeks) of 4600 mg/kg/day. For the same compound, the TD50 (mouse, strain B6C3F1, males, in feed, site: subcutaneous tissue, lesion: fibrosarcoma + fibroma, dosed 103 weeks, study length 104 weeks) was 1210 mg/kg/day, the carcinogen call (mouse, strain CDF1, females, in feed, site: any site (literature study), lesion: one or several types, types not named, dosed 76 weeks, study length 85 weeks) was “negative (inactive)” and the TD50 (mouse, strain CDF1, females, in feed, site: liver, lesion: hepatocellular adenoma, dosed 76 weeks, study length 85 weeks) was 6450 mg/kg/day (inactive). The TD50 (mouse, strain CDF1, females, in feed, site: lung, lesion: adenocarcinoma, dosed 76 weeks, study length 85 weeks) was 1770 mg/kg/day (inactive), the carcinogen call (mouse, strain CDF1, females, in feed, site: lung, lesion: several types, types named in the paper, dosed 76 weeks, study length 85 weeks) was “negative (inactive)” and the carcinogen call (mouse, strain CDF1, males, in feed, site: any site (literature study), lesion: one or several types, types not named, dosed 76 weeks, study length 85 weeks) was “negative (inactive)”. The carcinogen call (mouse, strain CDF1, males, in feed, site: liver, lesion: hepatocellular adenoma, dosed 76 weeks, study length 85 weeks) was “negative (inactive)”, the TD50 (mouse, strain CDF1, males, in feed, site: liver, lesion: hepatocellular carcinoma, dosed 76 weeks, study length 85 weeks) was 1940 mg/kg/day (inactive) and the TD50 (mouse, strain CDF1, males, in feed, site: liver, lesion: several types, types named in the paper, dosed 76 weeks, study length 85 weeks) was 3100 mg/kg/day (inactive). The TD50 (mouse, strain CDF1, males, in feed, site: lung, lesion: adenocarcinoma, dosed 76 weeks, study length 85 weeks) was 3980 mg/kg/day (inactive), the carcinogen call (mouse, strain CDF1, males, in feed, site: lung, lesion: several types, types named in the paper, dosed 76 weeks, study length 85 weeks) was “negative (inactive)” and the TD50 (rat, strain Fischer 344, females, in feed, site: clitoral gland, lesion: adenoma, NOS + carcinoma, NOS + papillary carcinoma + papilloma, NOS, dosed 103 weeks, study length 104 weeks) was 372 mg/kg/day. For the same compound, the TD50 (rat, strain Fischer 344, males, in feed, site: any site (literature study), lesion: several types, types named in the paper, dosed 103 weeks, study length 104 weeks) was 7600 mg/kg/day, the TD50 (rat, strain Fischer 344, males, in feed, site: preputial gland, lesion: adenoma, NOS + carcinoma, NOS + papilloma, NOS, dosed 103 weeks, study length 104 weeks) was 138 mg/kg/day and the TD50 (rat, strain Fischer 344, males, in feed, site: preputial gland, lesion: adenoma, NOS + papilloma, NOS, dosed 103 weeks, study length 104 weeks) was 358 mg/kg/day. The TD50 (rat, strain Fischer 344, males, in feed, site: preputial gland, lesion: adenoma, NOS, dosed 103 weeks, study length 104 weeks) was 301 mg/kg/day and the TD50 (rat, strain Fischer 344, males, in feed, site: preputial gland, lesion: carcinoma, NOS, dosed 103 weeks, study length 104 weeks) was 211 mg/kg/day.
